# Patent US9521847B2, “Synergistic weed control from applications of pyridine carboxylic acid herbicides and synthetic auxin herbicides and/or auxin transport inhibitors” (Dow AgroSciences LLC, priority 2014, dated 2016)
# Like-named read-outs stand apart in the source and are kept apart here.
# What was measured:
# [1] = tested on: pigweed (AMARE, Amaranthus retroflexus); test: Greenhouse postemergence trial, % visual injury; type: in vivo; settings: for % visual injury, Obs: AMARE
# [2] = tested on: winter rape (BRSNW, Brassica napus); test: Greenhouse postemergence trial, % visual injury; type: in vivo; settings: for % visual injury Obs: 20-22 d
# [3] = tested on: common lambsquarters (CHEAL, Chenopodium album L.); test: Greenhouse postemergence trial, % visual injury; type: in vivo
# [4] = tested on: kochia (KCHSC, Kochia scoparia); test: Greenhouse postemergence trial, % visual injury; type: in vivo; settings: for % visual injury Obs: 20-22 d
# Experimental: Following the protocol in Example 1, compound 1 and compound 2 were combined with 2,4 D EHE (EC) and applied to kochia (KCHSC, Kochia scoparia) and the phytotoxicity of the herbicidal compositions was measured.
# Following the protocol in Example 1, compound 1 (EC) and Compound 2 (SC) were combined with diflufenzopyr and applied to kochia (Kochia scoparia, KCHSC) and the phytotoxicity of the herbicidal composition was measured.
# [5] = tested on: velvetleaf (Abutilon theophrasti, ABUTH); test: Greenhouse postemergence trial, % visual injury; type: in vivo; settings: Abutilon theophrasti, post-emergence, ABUTH, read-out: % visual injury, Obs
# [6] = tested on: nutsedge (Cyperus esculentus, CYPES); test: Greenhouse postemergence trial, % visual injury; type: in vivo; settings: CYPES
# [7] = tested on: wild buckwheat (Polygonum convolvulus, POLCO); test: Greenhouse postemergence trial, % visual injury; type: in vivo; settings: for % visual injury, Obs: POLCO
# [8] = tested on: common chickweed (Stellaria media, STEME); test: Greenhouse postemergence trial, % visual injury; type: in vivo; settings: STEME
# [9] = tested on: large crabgrass (Digitaria sanguinalis, DIGSA); test: Greenhouse postemergence trial, % visual injury; type: in vivo; settings: Digitaria sanguinalis, post-emergence; DIGSA; MCPA EHE 140 g ae/ha; read-out: % visual injury, Obs
# [10] = tested on: kochia (KCHSC, Kochia scoparia); test: Patio postemergence trial, % visual injury; type: in vivo; settings: 20-22 d
# Experimental: (§1) The plants were grown for 7-36 days (d) on a fenced, open-air patio. Nutrients and water were added on a regular basis.
# (§2) Temperatures and photoperiods were dependent on the natural weather conditions during the trials. Weather conditions during trials were conducive for plant growth and development.
# winter wheat (TRZAW) [11] = test: Patio postemergence trial, crop phytotoxicity (% visual injury); type: in vivo, Triticum aestivum; settings: 20-22 d
# Experimental: as §1, §2
# [12] = tested on: Canadian thistle (CIRAR, Cirsium arvense); test: Greenhouse postemergence trial, % visual injury;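 further: plants sprayed at second to third true leaf stage, injury scored visually 20-22 d later against solvent-blank sprayed controls, 0 meaning no injury and 100 complete kill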
# [13] = tested on: spring rape (Brassica napus, BRSNN); test: Greenhouse postemergence trial, % visual injury; settings: Brassica napus, post-emergence, read-out: % visual injury, Obs
# [14] = tested on: poinsettia (Euphorbia heterophylla, EPHHL); test: Greenhouse postemergence trial, % visual injury; settings: Euphorbia heterophylla, post-emergence
# [15] = tested on: wild pansy (Viola tricolor, VIOTR); test: Greenhouse postemergence trial, % visual injury; settings: VIOTR
# [16] = tested on: ivyleaf morningglory (Ipomoea hederacea, IPOHE); test: Greenhouse postemergence trial, % visual injury; settings: Ipomoea, post-emergence
# spring barley (HORVS) = test: Greenhouse postemergence trial, crop phytotoxicity (% visual injury)
# winter wheat (TRZAW) [17] = test: as above; settings: for % visual injury, Obs: TRZAW
# maize (ZEAMX) = test: as above; settings: ZEAMX
# common rice (ORYSA) = test: as above; settings: ORYSA
# [18] = tested on: pigweed (AMARE, Amaranthus retroflexus); test: Patio postemergence trial, % visual injury; type: in vivo; settings: 20-22 d
# Experimental: as §1, §2
# [19] = tested on: CIRAR = Cirsium arvense (Canadian thistle); test: Small plot field trial (Canada), % visual injury; type: in vivo; settings: 35 g ae/ha alone, 46-64 DAA
# Experimental: (§3) Trials were established as randomized complete blocks with 3-4 replicates. Individual plots were 2-3 meters (m) wide and 8-10 m long. Applications were made with backpack or tractor-mounted sprayers delivering a spray volume output of 100 liters per hectare (L/ha) using pressurized carbon dioxide (CO2) as a propellant. Compound 7 was combined with 2,4 D EHE (660 g ae/L EC formulation) and applied to spring wheat (TRZAS), and the phytotoxicity of the herbicidal compositions was measured. In addition, the efficacy of the herbicidal composition on Canadian thistle ([…], Cirsium arvense), […] scoparia), mallow ([…] pusilla), wild buckwheat (POLCO, Polygonum convolvulus), and lady's thumb (POLPE, Polygonum persicaria) was evaluated.
# [20] = tested on: MALPU = Malva pusilla (mallow); test: Small plot field trial (Canada), % visual injury; type: in vivo; settings: 35 g ae/ha alone, 26-33 DAA
# Experimental: as §3
# [21] = tested on: kochia (KCHSC, Kochia scoparia); test: Small plot field trial (Canada), % visual injury; type: in vivo; settings: 35 g ae/ha alone, 46-64 DAA
# Experimental: as §3
# [22] = tested on: lady's thumb (POLPE, Polygonum persicaria); test: Small plot field trial (Canada), % visual injury; type: in vivo; settings: 35 g ae/ha alone, 14-16 DAA
# Experimental: as §3
# [23] = tested on: wild buckwheat (POLCO, Polygonum convolvulus); test: Small plot field trial (Canada), % visual injury; type: in vivo; settings: 35 g ae/ha alone, 15 DAA
# Experimental: as §3
# spring wheat (TRZAS) = test: Small plot field trial (Canada), crop phytotoxicity (% visual injury); type: in vivo, Triticum aestivum; settings: 35 g ae/ha alone
# Excerpt: Small plot field trials were established in Canada to evaluate efficacy and crop safety of Compound 7 with 2,4-D EHE. Trials were established as randomized complete blocks with 3-4 replicates. Individual plots were 2-3 meters (m) wide and 8-10 m long. Applications were made with backpack or tractor-mounted sprayers delivering a spray volume output of 100 liters per hectare (L/ha) using pressurized carbon dioxide (CO2) as a propellant. Compound 7 was combined with 2,4 D EHE (660 g ae/L EC formulation) and applied to spring wheat (TRZAS), and the phytotoxicity of the herbicidal compositions was measured. In addition, the efficacy of the herbicidal composition on Canadian thistle ([…], Cirsium arvense), kochia (KCHSC, Kochia scoparia), mallow (MALPU, Marva pusilla), wild buckwheat (POLCO, Polygonum convolvulus), and lady's thumb (POLPE, Polygonum persicaria) was evaluated.
# winter wheat (TRZAW) [24] = settings: Triticum aestivum (winter wheat), in vivo
# [25] = tested on: grain sorghum (Sorghum vulgare, SORVU); test: Greenhouse postemergence trial, % visual injury; type: in vivo; settings: SORVU, 140 g ae/ha
# [26] = tested on: soybean (Glycine max, GIAMA); test: Greenhouse postemergence trial, % visual injury; type: in vivo; settings: GLXMA, 140 g ae/ha
# [27] = crop, 280 g ae/ha alone, 20-22 d
# [28] = Chenopodium album, post-emergence, read-out: % visual injury Obs
compound,measurement,setting,value
"CCCCC(CC)COC(=O)COc1ccc(Cl)cc1C (stereo not shown) [MCPA EHE, 2-ethylhexyl (4-chloro-2-methylphenoxy)acetate]","% visual injury, Obs",[1]; MCPA EHE 140 g ae/ha,70%
same,pest or weed control at 280 g/ha,"[1]; Amaranthus retroflexus, post-emergence, 280 g ae/ha alone, 20-22 d, read-out: % visual injury Obs",35%
same,% visual injury Obs,[2]; 280 g ae/ha alone,73%
same,pest or weed control at 280 g/ha,"[3]; Chenopodium album, post-emergence, 280 g ae/ha alone, 20-22 d, read-out: % visual injury Obs",75%
same,% visual injury Obs,[4]; 280 g ae/ha alone,0%
same,pest or weed control at 280 g/ha,"[4]; Bassia scoparia, post-emergence, KCHSC, 280 g ae/ha, read-out: % visual injury, Obs",0%
same,pest or weed control at 280 g/ha,[5]; 280 g ae/ha,65%
same,pest or weed control at 140 g/ha,[5]; MCPA EHE 140 g ae/ha,0%
same,"% visual injury, Obs",[6]; 280 g ae/ha,50%
same,"% visual injury, Obs",[6]; MCPA EHE 140 g ae/ha,0%
same,% visual injury (Obs),[7]; MCPA EHE 420 g ae/ha,65%
same,"% visual injury, Obs",[7]; 280 g ae/ha,70%
same,"% visual injury, Obs",[7]; 420 g ae/ha,65%
same,"% visual injury, Obs",[8]; 280 g ae/ha,10%
same,pest or weed control at 140 g/ha,[9],10%
same,% visual injury Obs,[10]; 280 g ae/ha alone,20%
same,% visual injury Obs,winter wheat (TRZAW) [11]; 280 g ae/ha alone,0%
same,"% visual injury, Obs","[12]; CIRAR, 280 g ae/ha",75%
same,plant injury at 140 g/ha,[13],35%
same,plant injury at 280 g/ha,[13],95%
same,pest or weed control at 140 g/ha,"[14]; read-out: % visual injury, Obs, EPHHL, MCPA EHE 140 g ae/ha",0%
same,"% visual injury, Obs",[15]; 280 g ae/ha,75%
same,"% visual injury, Obs",[15]; MCPA EHE 140 g ae/ha,60%
same,pest or weed control at 140 g/ha,"[16]; read-out: % visual injury, Obs, IPOHE, MCPA EHE 140 g ae/ha",80%
same,"% visual injury, Obs","spring barley (HORVS); HORVS, 420 g ae/ha",0%
same,% visual injury (Obs),spring barley (HORVS); MCPA EHE 420 g ae/ha,0%
same,% visual injury Obs,spring barley (HORVS); [27],0%
same,% visual injury (Obs),winter wheat (TRZAW) [17]; MCPA EHE 420 g ae/ha,0%
same,"% visual injury, Obs",winter wheat (TRZAW) [17]; 280 g ae/ha,0%
same,"% visual injury, Obs",winter wheat (TRZAW) [17]; 420 g ae/ha,0%
same,"% visual injury, Obs",winter wheat (TRZAW) [17]; MCPA EHE 140 g ae/ha,3%
same,% visual injury Obs,winter wheat (TRZAW) [17]; [27],3%
same,"% visual injury, Obs",maize (ZEAMX); 280 g ae/ha,0%
same,"% visual injury, Obs",maize (ZEAMX); MCPA EHE 140 g ae/ha,0%
same,"% visual injury, Obs",common rice (ORYSA); 280 g ae/ha,0%
same,"% visual injury, Obs",common rice (ORYSA); MCPA EHE 140 g ae/ha,3%
Nc1c(F)c(-c2ccc3cc[nH]c3c2F)nc(C(=O)[O-])c1Cl.[K+] [compound 7],pest or weed control at 8.75 g/ha,"[1]; Amaranthus retroflexus, post-emergence, read-out: % visual injury Obs",70%
same,% visual injury Obs,[2]; 8.75 g ae/ha alone,58%
same,pest or weed control at 5 g/ha,[3]; [28],80%
same,pest or weed control at 8.75 g/ha,[3]; [28],60%
same,pest or weed control at 10 g/ha,[3]; [28],100%
same,% visual injury Obs,[4]; 8.75 g ae/ha alone,55%
same,% visual injury Obs,[10]; 8.75 g ae/ha alone,5%
same,% visual injury Obs,[10]; 17.5 g ae/ha alone,0%
same,% visual injury Obs,[18]; 8.75 g ae/ha alone,30%
same,% visual injury Obs,[18]; 17.5 g ae/ha alone,40%
same,% visual injury Obs,winter wheat (TRZAW) [11]; 8.75 g ae/ha alone,5%
same,% visual injury Obs,winter wheat (TRZAW) [11]; 17.5 g ae/ha alone,0%
same,% visual injury Obs,[19],20%
same,% visual injury Obs,[20],15%
same,% visual injury Obs,[21],62%
same,% visual injury Obs,[22],20%
same,% visual injury Obs,[23],50%
same,% visual injury Obs,spring wheat (TRZAS); 6-8 DAA,3%
same,% visual injury Obs,spring wheat (TRZAS); 14-16 DAA,3%
same,% visual injury Obs,winter wheat (TRZAW) [24],0%
same,pest or weed control at 5 g/ha,"[12]; Cirsium arvense, post-emergence, read-out: % visual injury Obs, 5 g ae/ha alone, 20-22 d",50%
same,pest or weed control at 8.75 g/ha,"[12]; Cirsium arvense, post-emergence, read-out: % visual injury Obs, 8.75 g ae/ha alone, 20-22 d",25%
same,pest or weed control at 10 g/ha,"[12]; Cirsium arvense, post-emergence, read-out: % visual injury Obs, 10 g ae/ha alone, 20-22 d",65%
"O=C(O)c1c(Cl)ccc2cc(Cl)cnc12 [quinclorac, reference compound]","% visual injury, Obs",[1]; 140 g ae/ha,10%
same,"% visual injury, Obs","[2]; BRSNW, 140 g ae/ha",0%
same,"% visual injury, Obs","[3]; CHEAL, 140 g ae/ha",5%
same,pest or weed control at 140 g/ha,"[4]; Bassia scoparia, post-emergence, KCHSC, 140 g ae/ha, read-out: % visual injury, Obs",0%
same,pest or weed control at 140 g/ha,[5]; 140 g ae/ha,0%
same,"% visual injury, Obs",[25],0%
same,"% visual injury, Obs",[8]; 140 g ae/ha,10%
same,"% visual injury, Obs",[26],30%
same,pest or weed control at 140 g/ha,"[14]; read-out: % visual injury, Obs, EPHHL, 140 g ae/ha",20%
same,"% visual injury, Obs",[15]; 140 g ae/ha,10%
same,pest or weed control at 140 g/ha,"[16]; read-out: % visual injury, Obs, IPOHE, 140 g ae/ha",65%
same,"% visual injury, Obs",winter wheat (TRZAW) [17]; 140 g ae/ha,0%
same,"% visual injury, Obs",maize (ZEAMX); 140 g ae/ha,0%
same,"% visual injury, Obs",common rice (ORYSA); 140 g ae/ha,0%
